Experimental data as given in patent US20220048900A1, “AMORPHOUS SPARSENTAN COMPOSITIONS” (Travere Therapuetics, Inc., priority 2018, published 2022).

Columns and labels:
[1] = MDSC of sparsentan and spray dried sparsentan dispersions; format: physicochemical
Method: MDSC was performed using a TA Instruments Q200 differential scanning calorimeter equipped with a TA instruments Refrigerated Cooling System 90. MDSC was used to measure glass transition temperature (Tg), cold crystallization (Tc), defined as a crystallization event at a temperature lower than the melt temperature, and melting temperature (Tm). Samples were placed in non-hermetic aluminum pans and heated at a constant rate of 2.0° C./min over a 25-200° C. temperature range. The system was purged by nitrogen flow at 50 mL/min to ensure inert atmosphere through the course of measurement.
Thermal properties, melting temperature (Tm), glass transition temperature (Tg), and crystallization temperature (Tc) of sparsentan was measured by MDSC. The Tg was measured via a melt-quench technique, heating past its melting temperature and rapidly cooling to trap the molten material in an amorphous state. The resulting sample was analyzed by MDSC and a Tg of 42° C. was determined (FIG. 4).

[2] = Pharmacokinetics of crystalline and amorphous sparsentan formulations, single IV or PO dose (Example 4); format: in vivo, male Sprague Dawley rats; conditions: for % F (dose-normalized AUC0-24 hr PO/IV): vs IV crystalline sparsentan 1 mg/kg
Method: Sparsentan was administered intravenously as a bolus injection (“IV”) or orally (“PO”) to male Sprague Dawley rats in a single dose, as described in Table 11. Four sparsentan formulations were tested: crystalline sparsentan (“Crystalline Sp”); spray dried dispersion particles formed from a 50:50 mixture of sparsentan and polyvinylpyrrolidone-vinyl acetate copolymer (“50:50 Sp:PVP-VA SDD”); spray dried dispersion particles formed from a 50:50 mixture of sparsentan and hydroxypropyl methylcellulose (“50:50 Sp:HPMC E3LV SDD”); and spray dried dispersion particles formed from a 50:50 mixture of sparsentan and hypromellose acetate succinate HG (“50:50 Sp: HPMCAS-H SDD”). Formulations were administered in a vehicle comprised of either a mixture of PEG400:ethanol:sterile water (30:30:40 v/v/v) (“A”) or a mixture of 0.5% Methocel A4M, 0.1% Tween-80 in purified water (“B”).
Blood samples were collected at 0.083 (Group 1 only), 0.25, 0.5, 1, 2, 4, 6, 8, and 24 hours post dose. Blood was collected into tubes containing K2EDTA and centrifuged, and resulting plasma samples were obtained. For each group, the following PK parameters were determined: maximum observed plasma concentration (Cmax), time of maximum observed plasma concentration (Tmax), and area under the plasma concentration-time curve (AUC). AUC from time 0 to 24 hours (AUC0-24 hr) was calculated for all groups with at least three consecutive quantifiable concentrations. For the IV dose, extrapolated null concentration (C0) was calculated and used as Cmax at time zero. For the oral doses, extrapolated value at time zero was assigned as 0.0 ng/m L. The AUC based on actual collection time point was from 0.083 to 24 hours for IV group and from 0.25 to 24 hour for PO group. Absolute bioavailability evaluation was determined as “% F” between single dose IV and oral dose, calculated as follows:
% F=Mean Dose Normalized AUC0-24 hr(PO)/Mean Dose Normalized AUC0-24 hr (IV).

[3] = Pharmacokinetics of modified release sparsentan formulations, PO (Example 5); format: in vivo, male Sprague Dawley rats; conditions: male rats
Method: Sparsentan was administered orally (“PO”) to male Sprague Dawley rats in a single or twice-a-day dose, as described in Table 14. Formulations were administered in a vehicle comprised of a mixture of 0.5% methylcellulose 4000 cps and 0.25% Tween 80 in distilled water. All animals were fasted overnight through approximately 4 hours post-dose. Animals receiving Formulation #2 were not fasted for the second dose administration.
Blood (approximately 0.3 mL) was collected from a jugular vein from each animal via syringe and needle and transferred into tubes containing K2EDTA at approximately 0.5, 1, 2, 4, 8 (prior to second dose for Group 2), 10, 12, and 24 hours post-dose. Another vein may be used as an alternative blood collection site. For each group, the following PK parameters were determined: maximum observed plasma concentration (Cmax), time of maximum observed plasma concentration (Tmax), and area under the plasma concentration-time curve (AUC). AUC from time 0 to 24 hours (AUC0-24 hr) was calculated for all groups with at least three consecutive quantifiable concentrations.

Structure (SMILES)	Tg ([1]; melt-quench technique) [°C]	physical stability ([1]; modulated ramp up to 200° C.)	% F (dose-normalized AUC0-24 hr PO/IV) ([2]; Group 2: PO 20 mg/kg) [%]	% F (dose-normalized AUC0-24 hr PO/IV) ([2]; Group 3: PO 60 mg/kg) [%]	Cmax increase with increasing dose (dose proportionality) ([2]; oral doses 20 and 60 mg/kg, male rats)	Cmax ([3]; Sprague Dawley, rat, 60 mg/kg/day, plasma, dose mg/kg/day #1 60, #2 60 (30 x 2, from first dose), #3 38, #4 28.8, #5 30, #6 28.6) [µg/mL]	AUC ([3]; Sprague Dawley, rat, 60 mg/kg/day, plasma, dose mg/kg/day #1 60, #2 60 (total dose), #3 38, #4 28.8, #5 30, #6 28.6, read-out: AUC0.5-24 hr) [µg·h/mL]	Tmax ([3]; Sprague Dawley, rat, plasma, 60 mg/kg/day, median, dose mg/kg/day #1 60, #2 60 (30 x 2, from first dose), #3 38, #4 28.8, #5 30, #6 28.6) [h]	Cmax/Dose ([3]; dose-normalized, #2 from first dose) [kg·ng/mL/mg]	AUC0.5-24 hr/Dose ([3]; dose-normalized, #2 from the total dose) [kg·ng·h/mL/mg]
CCCCC1=NC2(CCCC2)C(=O)N1Cc1ccc(-c2ccccc2S(=O)(=O)Nc2noc(C)c2C)c(COCC)c1 [Sparsentan, 2-[4-[(2-butyl-4-oxo-1,3-diazaspiro[4.4]non-1-en-3-yl)methyl]-2-(ethoxymethyl)phenyl]-N-(4,5-dimethyl-1,2-oxazol-3-yl)benzenesulfonamide]	42	stable as a neat amorphous form								
CCCCC1=NC2(CCCC2)C(=O)N1Cc1ccc(-c2ccccc2S(=O)(=O)Nc2noc(C)c2C)c(COCC)c1 [crystalline sparsentan, 2-[4-[(2-butyl-4-oxo-1,3-diazaspiro[4.4]non-1-en-3-yl)methyl]-2-(ethoxymethyl)phenyl]-N-(4,5-dimethyl-1,2-oxazol-3-yl)benzenesulfonamide]			50.1	55.2	approximately dose proportional	54.6	311	4	909	5189
